The source of these data is US8946119B2, “Chitooligosaccharides and methods for use in enhancing soybean growth” (Novozymes BioAg A/S, priority 2011, dated 2015).

Assay [1] deals with Soybean seeds (Pioneer 9oM80). The assay is described as follows: Soybean seed treatment in petriplates, radicle length. The class given is in vivo. The following applies: germination paper soaked with 5 ml of treatment solution; radicles measured after 48 hours; FIG. 7. The protocol:
Soybean seeds (Pioneer 9oM80) were plated in petriplates on moist germination paper soaked with 5 ml of treatment solution containing either water or Soybean LCO, Pea CO and CO plus fatty acids. Seedling radicles were isolated after 48 hours and measured for their length.

The subject of assay [2] is Soybean plants (Jung seed, var. 8168NRR). Kind of assay: Greenhouse soybean foliar treatment, plant dry biomass. The following applies: foliar application at V4 growth stage, FIG. 8. The class given is in vivo. The procedure:
Soybean plants (Jung seed, var. 8168NRR) were treated with various active molecules at V4 growth stage. Plant were grown from seeds in greenhouse in plastic pots containing 1:1 sand:perlite mixture. Seedlings were grown for 4 wks with occasional liquid fertilizer applications and then the plants were harvested.

Assay [3] concerns Soybean seeds (Jung seed, var. 8168NRR). The assay is described as follows: Greenhouse soybean seed treatment, leaf surface area. Format: in vivo. The following applies: seed treatment 3 fl oz/100 lbs of seed; seedlings grown 4 wks; central leaflet of 2nd trifoliate; vs control (water); FIG. 5. The protocol: Soybean seeds (Jung seed, var. 8168NRR) were treated with various active molecules. Seeds were treated with a liquid dose rate of 3 fl oz/100 lbs of seed. Seeds were allowed to dry for a 2 hours and planted in greenhouse in plastic pots containing 1:1 sand:perlite mixture. Seedlings were grown for 4 wks with occasional liquid fertilizer applications and then the plants were harvested. The central leaflet from the 2nd trifoliate (from down to top) was isolated and measured for surface area on a WinRhizo scanner. The rest of the plants were used for plant dry weight (DW).

The subject of assay [4] is soybean foliage. Kind of assay: Soybean field trials, foliar treatment, grain yield. The following applies: in vivo.

In the case of LCO-V(C18:1, MeFuc) [soybean LCO], in assay [1], the radicle length result was “better seed radicle growth enhancement over control and CO”. In addition, the plant dry biomass result was “no significant effect on plant dry biomass increase” in assay [2] and “relatively higher than the control plants” in assay [2] (listed as LCO).

In the case of LCO-V (C18:1) [LCO (SP104)], the leaf surface area entry in assay [3] is reported as “significant increase in leaf surface area”. In assay [4], the “Positive Yield Response (%)” value is 68.4%; the “Response (bu/A) over Control” value was 1.8 bu/A; the “Response Increase (% of Control)” value is reported as 3%; the “YIELD, Mean (N = 19)” value is listed as 58.3 bu/A.
